According to the supplement of paper PMC10307832:

Assays:
Test in all cases: relative viability (nuclei count vs DMSO), 5 days (fraction); higher = more cells survive
[1] = compound: CC1=CC(=CC=C1)NC2=NC(=CS2)C3=CC=NC=C3 + CS(=O)(=O)CCNCc1ccc(-c2ccc3ncnc(Nc4ccc(OCc5cccc(F)c5)c(Cl)c4)c3c2)o1 [Lapatinib] (partner 2 µM)
Summary of the method: (§1)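 Dosing by pin tool came one day after lung cancer cell lines were seeded in 1536-well plates, using either one drug or a fixed anchor-drug dose plus five library-drug doses (not always all listed) in √10 steps. After 5 days, nuclei were counted on 4× images. Relative viability is treated-well nuclei count divided by vehicle-well nuclei count, and values are medians of duplicate plates.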

[2] = compound: CC1=CC(=CC=C1)NC2=NC(=CS2)C3=CC=NC=C3 + CS(=O)(=O)N1CCN(Cc2cc3nc(-c4cccc5[nH]ncc45)nc(N4CCOCC4)c3s2)CC1 [Pictilisib] (partner 1 µM)
Summary of the method: as §1

[3] = compound: Cc1ccc(NC(=O)c2ccc(CN3CCN(C)CC3)cc2)cc1Nc1nc(-c2cccnc2)cs1 [Masitinib] + CS(=O)(=O)CCNCc1ccc(-c2ccc3ncnc(Nc4ccc(OCc5cccc(F)c5)c(Cl)c4)c3c2)o1 [Lapatinib] (partner 2 µM)
Summary of the method: as §1

[4] = compound: Cc1ccc(NC(=O)c2ccc(CN3CCN(C)CC3)cc2)cc1Nc1nc(-c2cccnc2)cs1 [Masitinib] + Cc1nc(NC(=O)N2CCC[C@H]2C(N)=O)sc1-c1ccnc(C(C)(C)C(F)(F)F)c1 [Alpelisib] (partner 2 µM)
Summary of the method: as §1

Cell Line	relative viability ([1]; first compound 0.08 µM)	relative viability ([1]; first compound 0.253 µM)	relative viability ([1]; first compound 0.8 µM)	relative viability ([1]; first compound 2.53 µM)	relative viability ([1]; first compound 8 µM)	relative viability ([2]; first compound 0.08 µM)	relative viability ([2]; first compound 0.253 µM)	relative viability ([2]; first compound 0.8 µM)	relative viability ([2]; first compound 2.53 µM)	relative viability ([2]; first compound 8 µM)	relative viability ([3]; first compound 0.01 µM)	relative viability ([3]; first compound 0.03162 µM)	relative viability ([3]; first compound 0.1 µM)	relative viability ([3]; first compound 0.3162 µM)	relative viability ([3]; first compound 1 µM)	relative viability ([4]; first compound 0.01 µM)	relative viability ([4]; first compound 0.03162 µM)	relative viability ([4]; first compound 0.1 µM)	relative viability ([4]; first compound 0.3162 µM)	relative viability ([4]; first compound 1 µM)
SK-MES-1	0.449	0.416	0.378	0.432	0.369	0.275	0.276	0.341	0.358	0.346	0.473	0.426	0.518	0.386	0.45	1.07	0.946	1.08	0.921	0.732
NCI-H2170	0.259	0.255	0.255	0.275	0.264	0.296	0.287	0.301	0.271	0.276	0.269	0.275	0.267	0.264	0.262	0.912	0.688	0.902	0.784	0.801
EPLC-272H	0.831	–	0.867	–	0.908	0.265	–	0.292	–	0.344	0.948	0.898	0.951	0.914	0.827	0.999	0.902	1.12	1.07	0.898
EBC-1	0.202	0.238	0.204	0.206	0.167	0.187	0.216	0.236	0.303	0.211	0.191	0.235	0.197	0.196	0.21	0.835	0.713	1.01	0.715	0.822
NCI-H1975	0.723	0.821	0.657	0.651	0.544	0.229	0.216	0.188	0.199	0.191	0.941	0.876	0.992	0.824	0.828	0.62	0.622	0.684	0.602	0.604
NCI-H647	0.958	0.977	0.849	0.932	0.917	–	0.289	0.388	0.317	0.231	0.869	0.919	1.07	1.04	0.994	1.08	1.26	1.19	1.28	1.1
NCI-H1355	0.723	0.713	0.652	0.656	0.651	0.268	0.315	0.348	0.292	0.327	0.691	0.94	0.807	0.781	0.951	0.857	0.707	0.938	0.668	0.731
NCI-H23	0.971	1.07	1.01	1	0.894	0.33	0.482	0.555	0.434	0.462	0.889	0.829	1.16	1.19	1.09	0.639	0.49	0.659	0.579	0.669
